Measured values published in patent publication US8809345B2, “6-cycloalkyl-pyrazolopyrimidinones for the treatment of CNS disorders” (Boehringer Ingelheim International GmbH, priority 2011, dated 2014).

How the values were obtained:
human PDE9A = human PDE9A (Homo sapiens, UniProt O76083); details: isolated enzyme, concentrations of up to 100 micromolar (μM); cited from earlier work
human PDE9A2 = target: T1, human PDE9A2 (Homo sapiens, UniProt O76083); experiment: PDE9A2 enzymatic activity assay (scintillation proximity assay); assay type: biochemical; details: SPA, lysate of SF9 cells expressing human PDE9A2, 20 nanomolar cGMP
T1 construct: made in house; host or cells: Sf9 insect cells (crude lysate, not purified)
Description: The total protein amount included in the assay varied upon infection and production efficacy of the SF9 cells and lay in the range of 0.1-100 ng.
The assays were run in 384-well format. The test reagents as well as the enzyme and the substrate were diluted in assay buffer. The assay buffer contained 50 mM Tris, 8.3 mM MgCl2, 1.7 mM EGTA, 0.1% BSA, 0.05% Tween 20; the pH of assay buffer was adjusted to 7.5.
(§1) IC50 can be calculated with GraphPadPrism or other suitable software setting the positive control as 100 and the negative control as 0. For calculation of IC50, dilutions of the test compounds […] are selected and tested following the aforementioned protocol.

PDE1C = PDE1C (Homo sapiens, UniProt Q14123); experiment: PDE1C assay, run analogously to the PDE9A2 assay; assay type: biochemical; details: ratio PDE1C vs PDE9A2
Text: The reaction can be stopped by applying the same inhibitor as the one that is outlined above (1-(2-Chlorophenyl)-6-[(2R)-3,3,3-trifluoro-2-methyl-propyl]-1,5-dihydro-4H-pyrazolo[3,4-d]pyrimidine-4-one).
as §1
Selectivity is the ratio (IC50 for PDE1C inhibition [nanomolar (nM)])/(IC50 for PDE9A2 inhibition [nanomolar (nM)]).

Murine PDE9A = target: T2, Murine PDE9A (Mus musculus, UniProt O70628); details: concentrations below 200 micromolar; cited from earlier work
T2 sequence (O70628 1-534): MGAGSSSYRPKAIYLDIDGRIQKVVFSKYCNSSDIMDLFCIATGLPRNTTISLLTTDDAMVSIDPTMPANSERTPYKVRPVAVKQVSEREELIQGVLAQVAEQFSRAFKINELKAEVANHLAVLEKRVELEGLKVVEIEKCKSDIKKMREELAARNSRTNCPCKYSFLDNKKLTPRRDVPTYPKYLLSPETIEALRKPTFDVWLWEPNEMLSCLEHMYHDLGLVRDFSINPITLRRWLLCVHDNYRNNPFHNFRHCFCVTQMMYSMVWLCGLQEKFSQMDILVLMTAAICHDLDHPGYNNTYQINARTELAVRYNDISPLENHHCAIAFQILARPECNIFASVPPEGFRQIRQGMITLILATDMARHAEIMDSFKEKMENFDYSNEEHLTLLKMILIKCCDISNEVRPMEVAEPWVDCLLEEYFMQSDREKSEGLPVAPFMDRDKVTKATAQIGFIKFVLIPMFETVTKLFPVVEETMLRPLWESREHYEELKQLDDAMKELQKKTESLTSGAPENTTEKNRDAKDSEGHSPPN

human PDE9A, sequence (O76083 whole entry): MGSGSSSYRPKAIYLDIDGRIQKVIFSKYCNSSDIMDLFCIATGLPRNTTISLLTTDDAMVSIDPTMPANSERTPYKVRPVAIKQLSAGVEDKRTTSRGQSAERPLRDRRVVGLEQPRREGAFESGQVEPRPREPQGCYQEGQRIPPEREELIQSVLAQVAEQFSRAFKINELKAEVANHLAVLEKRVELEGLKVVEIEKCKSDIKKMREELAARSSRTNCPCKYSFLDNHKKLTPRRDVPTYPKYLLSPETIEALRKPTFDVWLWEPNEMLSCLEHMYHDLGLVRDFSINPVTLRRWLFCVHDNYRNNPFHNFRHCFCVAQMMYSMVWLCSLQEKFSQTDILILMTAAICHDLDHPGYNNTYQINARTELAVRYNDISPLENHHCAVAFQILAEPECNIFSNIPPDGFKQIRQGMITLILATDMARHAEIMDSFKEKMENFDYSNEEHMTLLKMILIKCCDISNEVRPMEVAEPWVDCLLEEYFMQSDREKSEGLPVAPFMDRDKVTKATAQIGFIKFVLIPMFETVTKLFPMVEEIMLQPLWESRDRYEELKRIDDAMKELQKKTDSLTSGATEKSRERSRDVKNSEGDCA
T1 sequence (O76083 1-533 isoform O76083-2): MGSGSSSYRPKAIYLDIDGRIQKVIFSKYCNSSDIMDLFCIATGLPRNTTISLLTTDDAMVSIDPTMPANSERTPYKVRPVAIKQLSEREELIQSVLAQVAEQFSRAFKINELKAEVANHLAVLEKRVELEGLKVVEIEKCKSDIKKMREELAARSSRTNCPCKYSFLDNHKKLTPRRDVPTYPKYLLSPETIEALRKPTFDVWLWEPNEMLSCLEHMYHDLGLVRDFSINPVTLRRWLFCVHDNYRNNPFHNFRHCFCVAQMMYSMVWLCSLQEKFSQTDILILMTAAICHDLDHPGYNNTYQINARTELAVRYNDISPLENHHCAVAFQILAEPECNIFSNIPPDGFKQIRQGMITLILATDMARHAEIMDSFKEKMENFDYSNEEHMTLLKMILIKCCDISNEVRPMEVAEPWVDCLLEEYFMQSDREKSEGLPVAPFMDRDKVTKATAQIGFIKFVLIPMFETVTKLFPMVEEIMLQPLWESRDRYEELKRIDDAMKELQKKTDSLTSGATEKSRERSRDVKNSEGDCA

IC50 (human PDE9A2) [nM] | Selectivity (IC50 for PDE1C inhibition / IC50 for PDE9A2 inhibition) (PDE1C) | SMILES | inhibition of human PDE9A (human PDE9A) | inhibition of murine PDE9A (Murine PDE9A)
 |  | COc1ccc(C2CNC(=O)C2)cc1OC1CCCC1 (stereo not shown) [rolipram] | no inhibition | 
 |  | CCOC(=O)C1=C[C@]2(CC)CCCN3CCc4c(n1c1ccccc41)[C@@H]32 [vinpocetine] | no inhibition | 
 |  | OCCN(CCO)c1nc(N2CCCCC2)c2nc(N(CCO)CCO)nc(N3CCCCC3)c2n1 [dipyridamole] | no inhibition | 
 |  | CC(=O)Nc1ccc(-c2c[nH]c(=O)cn2)cc1 [SKF94120] | no inhibition | 
10 | 40 | O=c1[nH]c([C@@H]2CC[C@H]2c2cn3ccc(Cl)cc3n2)nc2c1cnn2C1CCC(F)(F)CC1 (racemic) [Example 5] |  | 
6 | 123 | O=c1[nH]c([C@@H]2CC[C@H]2c2cn3ccccc3n2)nc2c1cnn2C1CCC(F)(F)CC1 (racemic) [Example 4] |  | 
 |  | CC(C)Cn1c(=O)n(C)c(=O)c2[nH]cnc21 [IBMX] | no inhibition | not inhibited
